Data taken from the NIST ThermoML archive (doi:10.1021/je900381r).
Numbers after ± are expanded uncertainties.

Conditions: Crystal; DTA

O=c1cc(-c2ccc(O)c(O)c2)oc2cc(O)cc(O)c12 [5,7,3',4'-tetrahydroxyflavone]
Normal melting temperature: 337.43 ± 1 °C
